The values that follow come from PubChem BioAssay (NCI).

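Step 1: Grow cells in 96-well plates. Step 2: Expose to compound for 48 hours at 5 concentrations. Step 3: Interpolate endpoints linearly; if unreached, use highest concentration. TGI: total growth inhibition.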

Test systems include CAKI-1 renal; CCRF-CEM leukemia; HOP-62 NSCLC; HOP-92 NSCLC; LOX IMVI melanoma; MCF7 breast; MDA-MB-231 breast; MDA-N; NCI-H226 lung; NCI/ADR-RES ovarian; OVCAR-3 ovarian; OVCAR-4 ovarian; OVCAR-5 ovarian; SK-MEL-2 melanoma; SK-MEL-5 melanoma; SK-OV-3 ovarian; SNB-19 CNS; SNB-75 CNS; SW-620 colon; T-47D breast.
Test in all cases: growth of human tumour cells (NCI), 48 h

Regarding `COC(=O)N1CC2C3C4CC(C(c5ccccc5)=C4c4ccccc4)C3C21` (stereo not given), the TGI in the assay on CAKI-1 renal is 32.8 µM; in the assay on CCRF-CEM leukemia, 43.4 µM; in the assay on HOP-62 NSCLC, 42.5 µM; in the assay on HOP-92 NSCLC, 24.5 µM; with LOX IMVI melanoma, 25.6 µM; in the assay on MCF7 breast it was 78.3 µM. The TGI in the assay with MDA-MB-231 breast was determined as 22.3 µM; with MDA-N, 46.5 µM; in the assay with NCI-H226 lung, 29.6 µM; in the assay on NCI/ADR-RES ovarian, 35.4 µM; in the assay on OVCAR-3 ovarian, 36.7 µM; in the assay with OVCAR-4 ovarian, 29.5 µM. The TGI in the assay on OVCAR-5 ovarian was found to be 91.2 µM; with SK-MEL-2 melanoma it was 50.5 µM; in the assay with SK-MEL-5 melanoma, 25.9 µM; with SK-OV-3 ovarian, 70.2 µM; in the assay on SNB-19 CNS, 57.5 µM; in the assay with SNB-75 CNS, 76.4 µM. For the same compound, the TGI in the assay with SW-620 colon was determined as 40.4 µM; with T-47D breast, 32.9 µM.
With `CC/C=C(\C(=C/CC)[N+](=O)[O-])[N+](=O)[O-]`, the TGI is 37.8 µM in the assay with CAKI-1 renal; 42.4 µM in the assay with CCRF-CEM leukemia; over 100 µM in the assay with HOP-62 NSCLC; 45.1 µM in the assay with HOP-92 NSCLC; 32.2 µM with LOX IMVI melanoma; 38.1 µM in the assay on MCF7 breast. Besides, the TGI in the assay with MDA-MB-231 breast was 36.2 µM; in the assay with MDA-N, 43 µM; in the assay on NCI-H226 lung, over 100 µM; in the assay on NCI/ADR-RES ovarian, 52.7 µM; in the assay with OVCAR-3 ovarian it was 30.5 µM; in the assay with OVCAR-4 ovarian, 45.7 µM. Also, the TGI in the assay with OVCAR-5 ovarian is 27.2 µM; in the assay on SK-MEL-2 melanoma it was over 100 µM; in the assay on SK-MEL-5 melanoma, 47.9 µM; in the assay on SK-OV-3 ovarian, over 100 µM; in the assay on SNB-19 CNS, over 100 µM; in the assay on SNB-75 CNS it was over 100 µM. Besides, the results for the TGI in the assay on SW-620 colon and with T-47D breast were 32 µM and 55.6 µM, respectively.
